Source: patent US6699678B1, “Chlamydia trachomatis specific peptides and their use in diagnostic assays” (Savyon Diagnostics Ltd., priority 1997, dated 2004)

Assay type: physicochemical
Excerpt: c. Stabilizing the kit for longer shelf life.
Results: The wash buffer that enabled only three washing steps was the one that contained non-ionic detergent, this being the above-noted PBS-TWEEN buffer (see constituent no. (ii) in the above list).
This is also the case for the other reagents used in the improved kit, as mentioned above.

storage stability at 4° C. (in words) | storage stability at 37° C. (in words) | Compound
for one year | stable for one month | CCN(Cc1cccc(S(=O)(=O)[O-])c1)c1ccc(C(=C2C=CC(=[N+](CC)Cc3cccc(S(=O)(=O)[O-])c3)C=C2)c2ccccc2S(=O)(=O)[O-])cc1.[Na+].[Na+] [blue brilliant]
for one year | stable for one month | O=S(=O)([O-])c1ccc(N=Nc2c(O)ccc3cc(S(=O)(=O)[O-])ccc23)cc1.[Na+].[Na+] [yellow sunset]
